The values that follow come from ChEMBL document CHEMBL1201862, “PubChem BioAssay data set” (2004).

Some test systems named below: SK-MEL-2; RPMI-8226; ACHN; UACC-257; SF-295; NCI-H460; RXF 393; KM12; OVCAR-5; COLO 205; NCI-H522; UO-31; TK-10; SW-620; SF-539.
What all share (experiment): inhibition of tumour cell growth, NCI panel, 48 h

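Where inhibition never reached the appropriate level, the endpoint shown equals the highest concentration tested. Otherwise, values were interpolated linearly from a five-concentration, 48-hour dose response in 96-well plates. Here, GI50 denotes the concentration required for 50% inhibition of growth.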 Active and inactive are the calls of the source. Cut-off read from the data, not from the text of the source: active = GI50 up to about 1.1 µM and inactive = higher. A value given as a limit tells only on which side of the number the result lay.

Regarding `Cc1nc(N)sc1C(=O)/C=C\c1ccc2c(c1)OCO2`, the GI50 in the experiment with SK-MEL-2, in the experiment on RPMI-8226, in the experiment with ACHN, in the experiment with UACC-257, with SF-295 and in the experiment on NCI-H460 was > 100 µM (inactive) each time. Besides, the GI50 with RXF 393, with KM12, in the experiment with OVCAR-5, in the experiment with COLO 205, with NCI-H522 and in the experiment with UO-31 was > 100 µM (inactive) in each case. Besides, the GI50 in the experiment with TK-10, with SW-620 and in the experiment with SF-539 was > 100 µM (inactive) throughout.

With `CN(CCCCN)c1ccc2c(=O)[nH][nH]c(=O)c2c1`, the GI50 with SK-MEL-2, with RPMI-8226, in the experiment with ACHN, in the experiment on UACC-257, in the experiment on SF-295 and with NCI-H460 was > 100 µM (inactive) each time. The GI50 with RXF 393, with KM12, in the experiment on OVCAR-5, in the experiment with COLO 205, with NCI-H522 and in the experiment on UO-31 was > 100 µM (inactive) each time. In addition, the GI50 in the experiment on TK-10, in the experiment on SW-620 and in the experiment on SF-539 was > 100 µM (inactive) in each case.

Take `Cc1cc(C)c(C2[C@H]3C(=O)N(c4ccc(Cc5ccc(N6C(=O)[C@@H]7ON(c8ccccc8)C(c8c(C)cc(C)cc8C)[C@@H]7C6=O)cc5)cc4)C(=O)[C@H]3ON2c2ccccc2)c(C)c1` (some centres undefined): the GI50 in the experiment on SK-MEL-2, in the experiment with RPMI-8226, with ACHN, with UACC-257, in the experiment with SF-295 and with NCI-H460 was > 100 µM (inactive) throughout. The GI50 in the experiment on RXF 393 is 44.1 µM (inactive); with KM12, > 100 µM (inactive); in the experiment with OVCAR-5, > 100 µM (inactive); in the experiment with COLO 205, > 100 µM (inactive); in the experiment on NCI-H522, > 100 µM (inactive); in the experiment on UO-31, > 100 µM (inactive). The GI50 in the experiment with TK-10, in the experiment with SW-620 and in the experiment with SF-539 was > 100 µM (inactive) in each case.

In the case of `COc1cccc2c1C(=O)c1c(O)c3c(c(O)c1C2=O)C[C@@](O)(C(C)=O)C[C@@H]3OC1CC([N+]([O-])(Cc2ccccc2)Cc2ccccc2)C(O)C(C)O1` (some centres undefined), the GI50 in the experiment on SK-MEL-2 was 1.98 µM (inactive); in the experiment on RPMI-8226, 1.54 µM (inactive); with ACHN, 1.22 µM (inactive); with UACC-257, 1.71 µM (inactive); with SF-295, 1.19 µM (inactive); in the experiment with NCI-H460 it was 0.71 µM (active). Further, the GI50 with RXF 393 was 1.21 µM (inactive); in the experiment on KM12, 1.48 µM (inactive); in the experiment on OVCAR-5, 1.79 µM (inactive); in the experiment with NCI-H522, 1.39 µM (inactive); in the experiment on UO-31, 1.27 µM (inactive); in the experiment with TK-10, 1.6 µM (inactive). Further, the GI50 was 1 µM (active) in the experiment on SW-620 and 1.26 µM (inactive) in the experiment with SF-539.

For the compound `COC(=O)C(C#N)=C1c2ccccc2Oc2ccccc21`, the GI50 with SK-MEL-2 was > 100 µM (inactive); in the experiment on RPMI-8226, 18.8 µM (inactive); in the experiment on ACHN, 66.7 µM (inactive); in the experiment on UACC-257 it was > 100 µM (inactive); in the experiment on SF-295, 46.5 µM (inactive); in the experiment on NCI-H460, > 100 µM (inactive). Further, the GI50 in the experiment on RXF 393 was 38.5 µM (inactive); with KM12, > 100 µM (inactive); with OVCAR-5, > 100 µM (inactive); in the experiment on COLO 205 it was 92 µM (inactive); in the experiment with NCI-H522, 24.9 µM (inactive); in the experiment with UO-31, > 100 µM (inactive). The GI50 with TK-10 is > 100 µM (inactive); with SW-620 it was 43.2 µM (inactive); in the experiment on SF-539, 75.7 µM (inactive).

For the compound `CC(C)(c1ccccc1)c1ccc(OC#N)cc1`, the GI50 in the experiment with SK-MEL-2 was > 100 µM (inactive); in the experiment on RPMI-8226, 34.1 µM (inactive); with ACHN, 68.4 µM (inactive); in the experiment on UACC-257 it was > 100 µM (inactive); in the experiment on SF-295 it was 60.8 µM (inactive); with NCI-H460 it was 38.5 µM (inactive). Also, the GI50 with RXF 393 is 46.1 µM (inactive); in the experiment on KM12, > 75 µM (inactive); in the experiment on OVCAR-5, > 100 µM (inactive); in the experiment with COLO 205, > 41.3 µM (inactive); in the experiment on NCI-H522 it was 15.2 µM (inactive); in the experiment with UO-31 it was 49.1 µM (inactive). The values for the GI50 with TK-10, with SW-620 and in the experiment on SF-539 were > 100 µM (inactive), 99.3 µM (inactive) and 38.1 µM (inactive), respectively.

On to `C=C[C@@]1(O)CCCC2=C(C(=O)OCC)CC[C@]21C`, for which the GI50 is 90.8 µM (inactive) with SK-MEL-2; > 100 µM (inactive) with RPMI-8226; > 100 µM (inactive) with ACHN; > 100 µM (inactive) in the experiment on UACC-257; > 100 µM (inactive) with SF-295; > 100 µM (inactive) in the experiment with NCI-H460. Moreover, the GI50 in the experiment with RXF 393, in the experiment on KM12, with OVCAR-5, in the experiment with COLO 205, in the experiment on NCI-H522 and with UO-31 was > 100 µM (inactive) each time. Also, the figures for the GI50 in the experiment with TK-10, with SW-620 and with SF-539 were > 100 µM (inactive), 54.7 µM (inactive) and > 100 µM (inactive), respectively.

`O=C1c2ccccc2C(=O)c2c1cc(S(=O)(=O)O)c(O)c2O` [Alizarin Red S]: the GI50 in the experiment with SK-MEL-2 is 32.4 µM (inactive); with RPMI-8226, > 100 µM (inactive); in the experiment with ACHN it was > 100 µM (inactive); in the experiment on UACC-257, > 100 µM (inactive); with SF-295 it was > 100 µM (inactive); in the experiment on NCI-H460 it was > 100 µM (inactive). Moreover, the GI50 in the experiment with RXF 393, with KM12, in the experiment on OVCAR-5, in the experiment on COLO 205, in the experiment with NCI-H522 and in the experiment on UO-31 was > 100 µM (inactive) throughout. The GI50 in the experiment on TK-10, in the experiment with SW-620 and with SF-539 was > 100 µM (inactive) throughout.

`CN1C(=O)C(=O)c2cc3c(c4c2c1cc1ccccc14)OCO3` [CEPHARADIONE A]: the GI50 with SK-MEL-2 is 46.7 µM (inactive); in the experiment with RPMI-8226, 25.1 µM (inactive); in the experiment with ACHN, 18.8 µM (inactive); with UACC-257 it was 51.5 µM (inactive); in the experiment on SF-295 it was 38.7 µM (inactive); in the experiment with NCI-H460, 26.7 µM (inactive). The GI50 in the experiment on RXF 393 is 25.6 µM (inactive); with KM12, 18.3 µM (inactive); in the experiment on OVCAR-5, 48.8 µM (inactive); in the experiment with COLO 205 it was 28.7 µM (inactive); in the experiment with NCI-H522 it was 22.6 µM (inactive); in the experiment on UO-31, 20.2 µM (inactive). The GI50 was 52.5 µM (inactive) with TK-10, 35.4 µM (inactive) in the experiment with SW-620 and 45.6 µM (inactive) with SF-539.
